Assay [1] is described as follows: Inhibition of KRAS G12D mutant (unknown origin) to CRAF (unknown origin) protein protein interaction. Further details: species or system Homo sapiens.
The target of assay [2] is GTPase KRas (Homo sapiens, UniProt P01116, G12D). Briefly: Inhibition of human KRAS G12D mutant in human AGS cells assessed as reduction in phosphorylated ERK level incubated for 3 hrs. The assay is classed as cell-based.
Assay [3] deals with GTPase KRas/RAF1 (Homo sapiens, UniProt P01116). Briefly: Inhibition of KRAS (unknown origin) to CRAF (unknown origin) protein protein interaction. The assay is classed as protein assay.
For assay [4], the species on record is Homo sapiens. As to the kind of experiment: Selectivity ratio of IC50 for inhibition of KRAS G12D mutant (unknown origin) to CRAF (unknown origin) protein protein interaction to IC50 for KRAS (unknown origin) to CRAF (unknown origin) protein protein interaction. To be noted: tested as the 2H-labelled form.

GTPase KRas/RAF1, sequence (P04049 whole entry): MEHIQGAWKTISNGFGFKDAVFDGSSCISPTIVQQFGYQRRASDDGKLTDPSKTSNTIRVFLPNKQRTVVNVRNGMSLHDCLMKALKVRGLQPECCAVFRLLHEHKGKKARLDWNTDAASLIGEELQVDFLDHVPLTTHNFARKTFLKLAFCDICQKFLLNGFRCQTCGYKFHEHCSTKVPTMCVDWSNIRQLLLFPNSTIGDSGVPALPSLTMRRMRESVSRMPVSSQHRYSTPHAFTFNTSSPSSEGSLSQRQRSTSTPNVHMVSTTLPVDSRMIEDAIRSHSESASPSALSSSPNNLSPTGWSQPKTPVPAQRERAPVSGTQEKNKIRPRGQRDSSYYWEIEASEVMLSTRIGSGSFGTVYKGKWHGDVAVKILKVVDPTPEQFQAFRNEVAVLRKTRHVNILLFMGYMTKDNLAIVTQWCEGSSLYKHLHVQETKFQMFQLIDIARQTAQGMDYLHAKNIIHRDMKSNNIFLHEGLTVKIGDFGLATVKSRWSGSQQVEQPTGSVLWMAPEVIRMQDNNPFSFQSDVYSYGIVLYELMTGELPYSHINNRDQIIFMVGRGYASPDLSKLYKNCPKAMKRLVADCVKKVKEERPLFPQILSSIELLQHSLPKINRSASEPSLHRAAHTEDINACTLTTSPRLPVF
GTPase KRas/RAF1, sequence (P01116 whole entry): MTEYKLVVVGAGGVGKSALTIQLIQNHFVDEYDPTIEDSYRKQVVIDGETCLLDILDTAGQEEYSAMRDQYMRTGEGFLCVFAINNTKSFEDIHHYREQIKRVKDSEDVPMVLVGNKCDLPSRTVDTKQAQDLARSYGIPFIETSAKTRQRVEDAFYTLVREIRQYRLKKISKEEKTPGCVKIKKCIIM
GTPase KRas, sequence (P01116 whole entry G12D): as the sequence (P01116 whole entry) above, with G12D counted along it

What is called IC50 is the midpoint of a concentration-inhibition curve. Consider `[2H]C1([2H])CC[C@@]2(COc3nc(N4CC5CCC4CN5)c4cnc(-c5cc(O)cc6ccc(F)c(C#C)c56)c(F)c4n3)C[C@@]([2H])(F)CN12` (some centres undefined), for which the concentration for half-maximal inhibition (IC50) in assay [1] is 0.00507 µM; in assay [2], at most 0.05 µM; in assay [3] it was 0.0596 µM. For `Oc1cc(Cl)c(C(F)(F)F)c(-c2ncc3c(N4CC5CCC4CN5)nc(OCC45CCCN4CCC5)nc3c2F)c1` (centres undefined), in assay [2], the IC50 is above 0.001 µM.

On to `Oc1ccc(C(F)(F)F)c(-c2ncc3c(N4CC5CCC4CN5)nc(OCC45CCCN4CCC5)nc3c2F)c1` (centres undefined), for which the IC50 in assay [2] is above 0.001 µM. In the case of `[2H]C1([2H])CC[C@]2(COc3nc(N4CC5CCC4CN5)c4cnc(-c5cc(O)cc(Cl)c5C5CC5)c(F)c4n3)C[C@]([2H])(F)CN12` (some centres undefined), in assay [2], the IC50 is above 0.05 µM. For `[2H]C1([2H])CC[C@@]2(COc3nc(N4CC5CCC4CN5)c4cnc(-c5cc(O)cc6ccc(F)c(F)c56)c(F)c4n3)C[C@@]([2H])(F)CN12` (some centres undefined), the IC50 in assay [2] was at most 0.05 µM. On the same count and under the same terms, the figure for `Oc1cc(Cl)c(C2CC2)c(-c2ncc3c(N4CC5CCC4CN5)nc(OC[C@]45CCCN4C[C@@H](F)C5)nc3c2F)c1` (some centres undefined) is above 0.05 µM. Turning to `[2H]C1([2H])CC[C@@]2(COc3nc(N4CC5CCC4CN5)c4cnc(-c5cc(O)cc(F)c5C5CC5)c(F)c4n3)C[C@@]([2H])(F)CN12` (some centres undefined), the IC50 in assay [2] is above 0.05 µM. For the molecule `C#Cc1c(F)ccc2cc(O)cc(-c3ncc4c(N5CC6CCC5CN6)nc(OC[C@@]56CCCN5C[C@H](F)C6)nc4c3F)c12` (some centres undefined), in assay [4], the Ratio IC50 was determined as 12. The same measure, in the same setting: for `C#Cc1c(F)ccc2cc(O)cc(-c3ncc4c(N5CC6CCC5CN6)nc(OCC56CCCN5CCC6)nc4c3F)c12` (centres undefined) the value was 12. Turning to `[2H]C1([2H])CC[C@@]2(COc3nc(N4CC5CCC4CN5)c4cnc(-c5cc(O)cc(Cl)c5C5CC5)c(F)c4n3)C[C@@]([2H])(F)CN12` (some centres undefined), the IC50 in assay [1] was 0.0139 µM; in assay [2], at most 0.05 µM; in assay [3], above 1 µM. In the same order, the values of `[2H][C@H]1CN2CCC[C@@]2(COc2nc(N3CC4CCC3CN4)c3cnc(-c4cc(O)cc5ccc(F)c(C#C)c45)c(F)c3n2)C1` (some centres undefined) are 0.00395 µM, at most 0.05 µM and 0.0489 µM. With `Oc1cc(Cl)c(C2CC2)c(-c2ncc3c(N4CC5CCC4CN5)nc(OC[C@@]45CCCN4C[C@H](F)C5)nc3c2F)c1` (some centres undefined), the Ratio IC50 in assay [4] is above 72. The IC50 in assay [2] was at most 0.05 µM.

(Values after ChEMBL document CHEMBL5247674, “Discovery of Selective and Potent KRASG12D Inhibitors as Potential Therapy in Cancer” (ACS Med Chem Lett, 2023).)
